Laboratory results reported in patent publication US20220332774A1, “THERAPEUTIC MITOCHONDRIAL PEPTIDES” (priority 2019, published 2022).

What was measured:
C2C12 Cells = assay: Glucose utilization in cultured C2C12 cells (myotubes); format: cell-based, mouse; conditions: 22 h; for Percent of Control Activity: glucose concentration in medium relative to untreated cells, 5 μM peptide
Procedure: The effect of the peptides on glucose homeostasis can be assessed using an assay to monitor glucose utilization by cultured cells such as mouse myotubes. Peptide arrays were initially prepared as 5 mM stock in DMSO and diluted to 0.5 mM in H2O; peptides were used at a final concentration of 5 μM (0.1% DMSO). Calculations for peptide concentrations based on approximate molecular weight of 2000 Daltons. C2C12 mouse muscle cell line was purchased from Millipore Sigma (Saint Louis, Mo.). C2C12 cells were seeded in standard medium (DMEM/low glucose (1 g/L)+10% Fetal Bovine Serum+antibiotics) at 7,500 cells/well on 96-well plates and grown to confluence at 37° C. in a humidified atmosphere of 5% CO2/95% air. Three days after plating the medium was removed and with Differentiation Medium (DMEM/low glucose (1 g/L)+2% Horse Serum+antibiotics) added. The cultures were placed at 37° C. in a humidified atmosphere of 5% CO2/95% air for 5 days with partially replacement of medium daily. After 5 days of differentiation, the medium was removed from myotube cultures and replaced with Assay Medium (DMEM/low glucose (1 g/L)+antibiotics). Culture were placed at 37° C. in a humidified atmosphere of 5% CO2/95% air for 5 h. Following the 5 h incubation the medium was removed and fresh Assay Medium containing compounds was added; 5 μM peptide or 1 mM metformin as a potent stimulator of glucose utilization. Cells were incubated for 22 h at 37° C. in a humidified atmosphere of 5% CO2/95% air. Following 22 h incubation, conditioned medium from each well was transferred to a fresh 96-well plate. Glucose concentrations in the medium were determined using a Glucose Assay kit (Abcam; Cambridge, Mass.) according to the manufacturer's instructions; absorbance measured using a Cytation 3 plate reader at 570 nm (BioTek, Winooski, Vt.). Untreated cells were used as reference for basal glucose utilization. Absorbance values were expressed as percent control activity relative to untreated treated cells for 5 μM peptide. The relative standard deviation from plate to plate of untreated control was <10%. […] Data presented are representative values from 2-3 independent experiments with each data point performed in triplicate in each independent experiment.

H4-IIE Cells = assay: Glucose production in cultured H4-IIE cells; format: cell-based, rat; conditions: 24 h; for Percent of Control Activity: glucose concentration in medium relative to untreated cells, 5 μM peptide
Procedure: The effect of the peptides on glucose homeostasis can be assessed using an assay to monitor glucose production by cultured cells such as rat hepatocytes. Peptide arrays were initially prepared as 5 mM stock in DMSO and diluted to 0.5 mM in H2O; peptides were used at a final concentration of 5 μM (0.1% DMSO). Calculations for peptide concentrations based on approximate molecular weight of 2000 Daltons. H4-IIE rat hepatic cell line was purchased from American Type Culture Collection (Manassas, Va.). H4-IIE cells were seeded in standard medium (DMEM/high glucose+10% Fetal Bovine Serum+antibiotics) at 100,000 cells/well on 96-well plates and allowed to adhere overnight at 37° C. in a humidified atmosphere of 5% CO2/95% air. 24 h after seeding, the medium was removed, cells were rinsed with glucose free DMEM, and the medium replaced with Glucose Production Medium (glucose free DMEM+2 mM sodium pyruvate+10 mM sodium lactate+antibiotics). The cultures were placed at 37° C. in a humidified atmosphere of 5% CO2/95% air overnight. The next morning, the medium was removed and fresh Glucose Production Medium containing compounds was added; 5 uM peptide or 0.5-1 nM insulin as a potent inhibitor of glucose production. Cells were incubated for 24 h at 37° C. in a humidified atmosphere of 5% CO2/95% air. Following 24 h incubation, conditioned medium from each well was transferred to a fresh 96-well plate. Glucose concentrations in the medium were determined using a Glucose Assay kit (Abcam; Cambridge, Mass.) according to the manufacturer's instructions; absorbance measured using a Cytation 3 plate reader at 570 nm (BioTek, Winooski, Vt.). Untreated cells were used as reference for maximal glucose production. Absorbance values were expressed as percent control activity relative to untreated treated cells for 5 μM peptide. The relative standard deviation from plate to plate of untreated control was <25%. […] Glucose levels for 0.5-1 nM insulin treatment were <5% of the untreated control value. Data are presented as representative values from 2-3 independent experiments with each data point performed in triplicate in each independent experiment.

3T3-L1 Mouse Adipocytes = assay: Free fatty acid levels in cultured 3T3-L1 mouse adipocytes (isoproterenol stimulated); format: cell-based; conditions: for Percent of Isoproterenol Control Activity: free fatty acid in medium, 5 μM peptide, 20-22 h pre-incubation then 3 h with 0.1 nM isoproterenol, isoproterenol alone = 100%
Procedure: The effect of the peptides on fatty acid metabolism can be assessed using an assay to monitor free fatty acid levels produced by cultured cells such as mouse adipocytes. Peptide arrays were initially prepared as 5 mM stock in DMSO and diluted to 0.5 mM in H2O; peptides were used at a final concentration of 5 μM (0.1% DMSO). Calculations for peptide concentrations based on approximate molecular weight of 2000 Daltons. […] Mouse 3T3-L1 cells purchased from ZenBio (Research Triangle Park, NC) were seeded at 3,000 cells per well in 96-well plates in Pre-adipocyte Medium (Zen-Bio) and grown to confluence at 37° C. in a humidified atmosphere of 5% CO2/95% air. Two days after confluence, cells were placed in Adipocyte Differentiation Medium (Zen-Bio) and cultured for three additional days at 37° C. in a humidified atmosphere of 5% CO2/95% air. The culture medium was then replaced with Adipocyte Maintenance Medium (Zen-Bio) and the cells maintained for an additional 9 days at 37° C. in a humidified atmosphere of 5% CO2/95% air with partial medium replacement every other day. Following 12 days of differentiation, medium was replaced Adipocyte Maintenance Medium without insulin and the cultures placed at 37° C. in a humidified atmosphere of 5% CO2/95% air. On day 13 of differentiation, test peptides were added directly to each well (without replacing the medium) at a final concentration of 5 μM in 0.1% DMSO and incubated for 20-22 hours at 37° C. in a humidified atmosphere of 5% CO2/95% air. […] Cells were incubated for 3 hours in Assay Buffer (Zen-Bio) at 37° C. in a humidified atmosphere of 5% CO2/95% air. Following 3 h incubation, conditioned medium from each well was transferred to a fresh 96-well plate. Free fatty acid concentrations in the medium were determined using a Free Fatty Acid Assay kit (Zen-Bio) according to the manufacturer's instructions; absorbance was measured using a Cytation 3 plate reader at 540 nm (BioTek, Winooski, Vt.). Treatment with 0.1 nM isoproterenol alone was used as the free fatty acid level stimulatory control. Absorbance values were expressed as percent control activity relative to 0.1 nM isoproterenol alone treated cells, 100%. The relative standard deviation of the isoproterenol control was <10%. Insulin at 0.25 nM was used as a potent control for decreasing free fatty acid levels. […] Data presented are representative values from 2 independent experiments with each data point performed in triplicate in each independent experiment.

Row | Compound | Percent of Control Activity (C2C12 Cells) [%] | Percent of Control Activity (H4-IIE Cells) [%] | Percent of Isoproterenol Control Activity (3T3-L1 Mouse Adipocytes) [%] | reduction of extracellular glucose compared to untreated controls (C2C12 Cells; metformin 1 mM, across all plates) | Glucose levels, % of the untreated control value (H4-IIE Cells; 0.5-1 nM insulin) [%] | Free fatty acid levels (3T3-L1 Mouse Adipocytes; insulin 0.25 nM with 0.1 nM isoproterenol, 3 h)
1 | 1 (MAAAPSGCPDPTS) [compound 1] | 99 | 128 | 85 | – | – | –
2 | 2 (MAASVERGFIFLV) [compound 2] | 99 | 119 | 93 | – | – | –
3 | 3 (MAGGFMLMIVVMKLMAPKMEETPA) [compound 3] | 94 | 118 | 91 | – | – | –
4 | 4 (MAHTFPLNKTSR) [compound 4] | 101 | 116 | 80 | – | – | –
5 | 5 (MAHYSQIPSRPHGWPPSD) [compound 5] | 101 | 122 | 98 | – | – | –
6 | 6 (MAIAVVYPKTTIIPPK) [compound 6] | 100 | 122 | 80 | – | – | –
7 | 8 (MAPPLPPLEPTVKLT) [compound 8] | 102 | 90 | 102 | – | – | –
8 | 9 (MAQTMPMYPNGSFFPE) [compound 9] | 98 | 90 | 98 | – | – | –
9 | 10 (MATKKNFMEKGTRAGDMGSKPHS) [compound 10] | 100 | 87 | 94 | – | – | –
10 | 11 (MAVVDGWVNTWVVPKSASPWKN) [compound 11] | 96 | 76 | 84 | – | – | –
11 | 13 (MCSCVYVYSYCKYMVCSHDKP) [compound 13] | 101 | 87 | 92 | – | – | –
12 | 14 (MDGCALLAVL) [compound 14] | 100 | 120 | 101 | – | – | –
13 | 15 (MDMVPQGKDEKL) [compound 15] | 96 | 88 | 90 | – | – | –
14 | 16 (MDSWVVGVNEWG) [compound 16] | 100 | 89 | 89 | – | – | –
15 | 18 (MEAMGLAWNQLWGVRFLPFLS) [compound 18] | 97 | 99 | 102 | – | – | –
16 | 19 (METDLDYSGLNSDHVGL) [compound 19] | 94 | 99 | 89 | – | – | –

Row | Compound | Percent of Control Activity (C2C12 Cells) [%] | Percent of Control Activity (H4-IIE Cells) [%] | Percent of Isoproterenol Control Activity (3T3-L1 Mouse Adipocytes) [%] | reduction of extracellular glucose compared to untreated controls (C2C12 Cells; metformin 1 mM, across all plates) | Glucose levels, % of the untreated control value (H4-IIE Cells; 0.5-1 nM insulin) [%] | Free fatty acid levels (3T3-L1 Mouse Adipocytes; insulin 0.25 nM with 0.1 nM isoproterenol, 3 h)
17 | 20 (MFDQENVVTSTESSPS) [compound 20] | 102 | 97 | 88 | – | – | –
18 | 23 (MFHLRYHNHRYPHRRQSI) [compound 23] | 99 | 96 | 94 | – | – | –
19 | 24 (MFKLSFYFYVV) [compound 24] | 94 | 96 | 92 | – | – | –
20 | 25 (MFLVGWWGMV) [compound 25] | 97 | 94 | 91 | – | – | –
21 | 26 (MGACQGGSDESN) [compound 26] | 99 | 97 | 93 | – | – | –
22 | 27 (MGCDDNVVDVVVT) [compound 27] | 95 | 100 | 87 | – | – | –
23 | 28 (MGCSGSSVSQCYRVHTPQTKMPNAW) [compound 28] | 100 | 121 | 105 | – | – | –
24 | 29 (MGDCAVCDA) [compound 29] | 109 | 106 | 90 | – | – | –
25 | 30 (MGEGLEENPTNPITKPTLN) [compound 30] | 102 | 102 | 98 | – | – | –
26 | 31 (MGEVGLLWLGRI) [compound 31] | 107 | 101 | 78 | – | – | –
27 | 32 (MGGEWGMGVWTWGCFLVWM) [compound 32] | 108 | 100 | 94 | – | – | –
28 | 33 (MGGGVLLGLQ) [compound 33] | 111 | 100 | 103 | – | – | –
29 | 35 (MGGRWGLGWWRAG) [compound 35] | 108 | 100 | 98 | – | – | –
30 | 36 (MGLAAVCVCWVGWAGVVLM) [compound 36] | 106 | 101 | 103 | – | – | –
31 | CN(C)C(=N)N=C(N)N [Metformin, reference compound] | – | – | – | 50-70% | – | –
32 | insulin [reference compound] | – | – | – | – | < 5 | at or below levels for unstimulated control without isoproterenol
